In patent publication US7648964B2, “Use of lacritin in promoting ocular cell survival” (University of Virginia Patent Foundation, priority 2004, dated 2010):
Entries after “also recorded” stand apart in the source; their conditions may differ.

What was measured:
PKCα [1] = assay: PKCα translocation in HSG cells (immunofluorescence, fractionation); type: cell-based, human; conditions: for effect on lacritin-dependent PKCα translocation: pertussis toxin 100 ng/ml, Go 6976, U73122, U73343, cyclosporine 1 μM, nifedipine 10 μM
Source text: In order to dissect the molecular pathways leading to the cell survival by lacritin, protein kinases and transcriptional factors were studied by Western blotting and immunofluorescence microscopy.
Images were acquired at 2-3 s intervals using LaserSharp2000 software (Bio-Rad) and store on disc for later analysis.

NFATC1 = NFATC1 translocation in HSG cells (immunofluorescence); type: cell-based, human; conditions: cyclosporine 1 μM; nifedipine 10 μM
Source text: In order to dissect the molecular pathways leading to the cell survival by lacritin, protein kinases and transcriptional factors were studied by Western blotting and immunofluorescence microscopy. […] On the other hand, there were increased activities of transcriptional factors such as nuclear factor of activated T-cells (NFAT) and NF-kappaB. In FIG. 4, translocation of PKC alpha and NFAT was detected by immunofluorescence coupled with confocal microscopic imaging. In resting HSG cells (left three images), PKC alpha distributes mainly in cytosol and membrane. Similarly, NFATc1 was also found to localize largely in cytosol. Cellular co-location of PKC alpha and NFATc1 is apparent upon merging the two immunofluorescent images, as the merged cy3 and FITC labels produce distinctive yellow color.
Images were acquired at 2-3 s intervals using LaserSharp2000 software (Bio-Rad) and store on disc for later analysis. For translocation assays, HSG cells […] phorbol 12-myristate 13-acetate, […], then washed with phosphate-buffered saline, formaldehyde-fixed, blocked with phosphate-buffered saline containing 1% bovine serum albumin and 10% goat serum, incubated with anti-PKCα (C-20) or anti-NFATC1 (mab 7A6) (both from Santa Cruz Biotechnology Inc.; Santa Cruz, Calif.) followed by secondary Cy3-, FITC- or Alexa488-labeled antibodies and confocal microscopic visualization (Bio-Rad Radiance2100).

HSG cells = assay: Calcium mobilization imaging in HSG cells (Fluo-4); type: cell-based, human; conditions: for effect on lacritin-stimulated calcium mobilization: preincubation: pertussis toxin 100 ng/ml, or siRNA
Method: Cells were seeded at 1.4×10^4 HSG cells/mm^2 or 0.7×10^4 HSG cells/mm^2 on Matrigel-coated (100 μg/ml; BD Biosciences; San Diego Calif.) coverslips to respectively achieve 70-80% confluency after overnight or 48 h growth in 6-well plates containing phenol red-free Dulbecco's modified Eagle's medium with 10% fetal calf serum.
Other cells were incubated (0.7×10^4HSG cells/mm^2 overnight plating) with 100 ng/ml pertussis toxin (Calbiochem; San Diego Calif.) in phenol red-free Dulbecco's modified Eagle's medium with 10% fetal calf serum; or vehicle alone). Cells were washed with calcium-free/phenol red-free Hanks basic salt solution, 20 mM N-2-hydroxyethylpiperazine-N′-2-ethane sulfonic acid and then incubated for 1 h at room temperature with the same solution containing fluo-4 μM at 4 μM (FluoroPure grade [Molecular Probes; Eugene Oreg.] dissolved in DMSO plus 20% Pluronic F-127). Cells were washed three times for 60 min at room temperature with calcium-free/phenol red-free Hanks basic salt solution with 5 mM Ca^2+ or 5 mM EGTA. Temperature was stabilized for 5 min at 37° C. coverslips were placed on the stage of a TE-200 epifluorescent microscope (Bio-Rad Radiance2100 confocal/multiphoton system using Plan Fluor 60×NA 1.4 Oil IR objective lens [Bio-Rad, Hercules Calif.] as part of the W. M. Keck Center for Cellular Imaging, University of Virginia), subjected to a 488 nm argon laser light source with emission at 528 nm. Baseline monitoring was followed by addition of lacritin or deletion fragments in phenol red-free Hanks basic salt solution.

PKCα [2] = assay: Phospho-PKCα blot of HSG cell lysates; type: cell-based, human; conditions: for effect on lacritin-dependent PKCα dephosphorylation: pertussis toxin 100 ng/ml, Go 6976, U73122, U73343 1 μM
Method: (§1) For phosphotyrosine blotting and mitogenesis assays, cells in serum-containing media were seeded overnight in 24-well plates at a density of 0.5×10^5 cells/mm^2 corresponding to 20-30% confluency after cell attachment, incubated in serum-free media without supplements for 24 h (phosphotyrosine) or washed with serum-free media without supplements three times (mitogenesis) and incubated with lacritin (1-1000 nM), or positive controls EGF (1.6 nM) and 10% fetal bovine serum, or negative controls bovine serum albumin or no additive in serum-free media without supplements for the indicated times (phosphotyrosine) or 30 h (mitogenesis). For phosphotyrosine assays, cells were extracted in 1% NP40 containing sodium vanadate (2 mg/ml), DTT (5 mg/ml), protease inhibitors, 50 mM HEPES, 100 mM NaCl, and 2 mM EDTA; then separated by 10% SDS PAGE, transferred and blotted. The following antibodies (Cell Signaling Technology, Beverly Mass.) were tested: antiphosphotyrosine antibody (P-Tyr-100), anti-phospho-PKC αβII, anti-PKCα, anti-phospho-PKCδ, anti-phospho-PKC (pan), anti-p44/42 MAPK, anti-phospho-Raf, anti-phospho-SAPK/JNK, anti-phospho-p38 Map kinase, anti-phospho-Raf, anti-phospho-Akt, anti-phospho-CaMKII, anti-phospho-MARCKS, or anti-tubulin (loading control). After washing, bound antibodies were detected with peroxidase-labeled secondary antibody and ECL. With the exception of at least nine proteins in the P-Tyr-100 blot (FIG. 1), none of the effectors tested above appeared to be phospho-activated during lacritin signaling (not shown). For mitogenesis (Hussaini et al., '00), [^3H]-thymidine (2 mCi/ml) was added for the next 6 h. Incorporation was stopped with ice-cold phosphate buffered saline and followed by addition of cold and then room temperature trichloracetic acid (10%) for 10 min each, washing of cells with phosphate buffered saline, solubilization with 1 N sodium hydroxide, neutralization with 1 N hydrochloric acid, addition of scintillation fluid and then quantitation in a scintillation counter. To deplete PKCα in HSG cells, a pool of four PKCα-specific siRNAs (100 nM) were transfected via LipofectAMINE 2000 in Opti-MEMI Reduced Serum Medium (Invitrogen, Grand Island N.Y.) without serum and antibiotics according to manufacturer's instructions. Each of the four siRNAs was also individually transfected. In negative controls, cells were transfected with a pool of four lamin-specific siRNAs (Upstate LLC, Charlottesville Va.; Dharmacon Inc, Lafayette Colo.). Seventy-two hours post-transfection, mitogenesis was assessed by co-addition of 10 […] lacritin and [^3H]-thymidine (2 mCi/ml) (Amersham, Piscataway N.J.) for 24 hrs. PKCα depletion was confirmed by Western blotting.
We imaged PKCα in cells 15 min after treatment (FIG. 8). Nonmitogenic construct/fragment C-25 (10 nM) had no effect, leaving PKCa diffusely distributed throughout the cytoplasm. […] The phosphorylation state of PKCα influences its translocation site. Hyperphosphorylated PKCα becomes associated with the plasma membrane whereas hypophosphorylated or dephosphorylated PKCα is known to translocate to the perinuclear Golgi region. To determine if the latter is true and if so over what time course, we treated cells with lacritin, N-24 and C-25, and then blotted cell lysates for phospho-PKC ? (FIG. 8B). 10 nM lacritin promotes PKC ? dephosphorylation within 1 min of addition. This form is sustained for at least 15 min, but by 30 min has returned to baseline phosphorylation. Dephosphorylation triggered by increasing molar levels of lacritin or N-24 mirrored the proliferation response with optimal dephosphorylation at 10 nM. Non-mitogenic C-25 had no effect, whereas positive control 4β-phorbol 12-myristate 13-acetate-promoted hyperphosphorylation.

[3] = tested on: human salivary ductal (HSG) cells; assay: 3H-thymidine uptake mitogenesis assay; type: cell-based; conditions: 10 nM; compared to intact lacritin
Method: as §1

`C/C=C(/C)C(=O)O[C@H]1C(C)=C2[C@H]([C@@H]1OC(=O)CCCCCCC)[C@@](C)(OC(C)=O)C[C@H](OC(=O)CCC)[C@@]1(O)[C@H]2OC(=O)[C@@]1(C)O` [thapsigargin] was tested, and the “effect on lacritin-dependent PKCα translocation” value (PKCα [1]) was “inhibited” and the “effect on lacritin-dependent NFATC1 translocation” value (NFATC1) was “inhibited”.

In the case of `C[N+](C)(C)CCOC(N)=O` [carbachol], the “calcium mobilization after pertussis toxin preincubation” value (HSG cells; positive control replacing lacritin) is reported as “full calcium mobilization”.

With `CCCCCCCCCCCCCC(=O)O[C@@H]1[C@@H](C)[C@@]2(O)[C@@H](C=C(CO)C[C@]3(O)C(=O)C(C)=C[C@@H]23)[C@@H]2C(C)(C)[C@]12OC(C)=O` [4β-phorbol 12-myristate 13-acetate, reference compound] the PKCα translocation (PKCα [1]; 15 min after treatment) was “concentrated PKCα solely in the plasma membrane” and the “effect on PKCα phosphorylation” value (PKCα [2]) was “hyperphosphorylation”.

For “C-59: deletion of the 59 carboxy terminal amino acids of mature lacritin (SEQ ID NO:10) (EDASSDSTGADPAQEAGTSKPNEEISGPAEPASPPETTTTAQETSAAAVQGTAKVTSSRQ; homo sapiens)”, the “mitogenic activity of deletion constructs” value (“mitogenic activity” for short) [3] was “inactive”.

`[Gd]` [gadolinium] was tested, and the “effect on lacritin-dependent NFATC1 translocation” value (NFATC1) was “non-inhibitory”.

`COc1ccc2c(c1)CC[C@@H]1[C@@H]2CC[C@]2(C)[C@@H](NCCCCCCN3C(=O)C=CC3=O)CC[C@@H]12` [U73122] was tested, and the “effect on lacritin-dependent PKCα translocation” value (PKCα [1]) was “inhibited”, the “effect on carbachol-stimulated calcium mobilization” value (HSG cells; U73122 1 μM, Go 6976 1 μM, even at 10 μM) was “inhibited” and the “effect on lacritin-stimulated calcium mobilization” value (HSG cells; U73122 1 μM, Go 6976 1 μM) was “inhibited”. For the same molecule, the “effect on lacritin-dependent PKCα dephosphorylation” value (PKCα [2]) was “inhibited” and the “effect on lacritin-dependent NFATC1 translocation” value (NFATC1) was “inhibited”.

With `COc1ccc2c(c1)CC[C@@H]1[C@@H]2CC[C@]2(C)[C@@H](NCCCCCCN3C(=O)CCC3=O)CC[C@@H]12` [U73343] the “effect on lacritin-dependent PKCα translocation” value (PKCα [1]) was “full translocation and dephosphorylation” and the “effect on lacritin-dependent PKCα dephosphorylation” value (PKCα [2]) was “full translocation and dephosphorylation”.

pertussis toxin was tested, and the “effect on lacritin-dependent PKCα translocation” value (PKCα [1]) was “inhibited”, the “effect on lacritin-stimulated calcium mobilization” value (HSG cells; U73122 1 μM, Go 6976 1 μM) was “completely inhibited” and the “effect on lacritin-dependent PKCα dephosphorylation” value (PKCα [2]) was “inhibited”. For the same molecule, the “effect on lacritin-dependent NFATC1 translocation” value (NFATC1) was “inhibited”.

For `O=C(O)CN(CCOCCOCCN(CC(=O)O)CC(=O)O)CC(=O)O` [EGTA], the “effect on lacritin-dependent NFATC1 translocation” value (NFATC1) was “non-inhibitory”.

B1: C-15: deletion of the 15 carboxy terminal amino acids of mature lacritin (SEQ ID NO:10) (protein)
chain: EDASSDSTGADPAQEAGTSKPNEEISGPAEPASPPETTTTAQETSAAAVQGTAKVTSSRQELNPLKSIVEKSILLTEQALAKAGKGMHGGVPGGKQFIENGSEF
modifications: homo sapiens
In the case of B1, the “mitogenic activity” value [3] is reported as “diminished; also recorded: partially active”.

B2: C-20: deletion of the 20 carboxy terminal amino acids of mature lacritin (SEQ ID NO:10) (protein)
chain: EDASSDSTGADPAQEAGTSKPNEEISGPAEPASPPETTTTAQETSAAAVQGTAKVTSSRQELNPLKSIVEKSILLTEQALAKAGKGMHGGVPGGKQFIE
modifications: homo sapiens
B2 was tested, and the “mitogenic activity” value [3] was “completely abrogated activity; also recorded: inactive”.
